Results on two compounds are retold here after patent US7378443B2, “Fatty acid analogues for the treatment of cancer” (Thia Medica, AS, priority 2000, dated 2008).

Entries after “also recorded” stand apart in the source; their conditions may differ.

A short description of data set [1]: 28 days toxicity study in dogs (GLP). The data set is classed as in vivo. An excerpt: A 28 days toxicity study in dogs according to GLP guidelines has been performed by Corning Hazleton (Europe), England. […] Some lipid related parameters were lowered in the animals given high dosages. This is consistent with the pharmacological activity of TTA.
The subject of a further data set is D-54MG cells. Description: cell migration out from attached spheroids. In kind it is cell-based, human. The note with it: D-54MG spheroids, 100 μM, 3 days of culture, DMEM; data not shown. How it is done: (§1) To compare the effect of the different fatty acid analogues on tumour spheroid growth, both D-54Mg and GaMg spheroids were transferred individually into 16 mm 24-well dishes base coated with 0.5 ml 0.75% DMEM-agar. D-54Mg and GaMg are human cell lines. The D-54Mg cell line was derived from a mixed anaplastic glioma and was kindly supplied by Dr. Darell D. Bigner, Duke University, Durham, N.C. The GaMg cell line was established in our laboratory and has been described in detail elsewhere (Bjerkvik et al.: Anticancer research 1998: vol 8, p 797-803). The spheroids were divided into 5 groups with 4 spheroids in each group. Four groups were treated with the different fatty acid analogues at a final fatty acid concentration of either 100 or 250 μM. […] The volume of the overlay suspension was 1.0 ml. The size of the spheroids were determined every second day be measuring two orthogonal diameters using an inverted phase contrast microscope with a calibrated reticle in the eye-piece. This was done during a 14-day period.
(§2) The effect of the fatty acid analogues on cell migration was studied by measuring the ability of cells to migrate out from spheroids that had attached to a plastic surface. […] The size of the outgrowth area was then determined by using a Kontron morphometry system (Kontron, Eching, Germany). […]

For the next data set, the system named is GaMg cells. Description: cell migration out from attached spheroids. The data set is classed as cell-based, human. The note with it: 100 μM, 3 days of culture, DMEM, data not shown. As for the experimental part:
as §1, §2

The next data set has as its system Escherichia coli. Description: tests for mutagenic activity in bacterial strains. In kind it is cell-based. To be noted: 3-1000 mg/plate (TTA), 2-5000 mg/plate (TSA). As for the experimental part:
(§3) Covance Laboratories Limited, England, has performed tests for mutagenic activity. […] Furthermore, TTA was not mutagenic when tested in mouse lymphoma cells […] L5178Y.
(§4) The concentration of the compounds tested in S. typhimurium and E. coli were 3-1000 mg/plate (TTA) 2-5000 mg/plate (TSA). In mouse lymphoma cells, L5178Y, the concentration was 2,5-50 mg/ml.

A further data set relates to Salmonella typhimurium. Description: tests for mutagenic activity in bacterial strains. In kind it is cell-based. To be noted: 3-1000 mg/plate (TTA), 2-5000 mg/plate (TSA). How it is done: as §3, §4
In data set [2] the test system is mouse lymphoma cells, L5178Y. Briefly: mutagenicity test in mouse lymphoma cells. The data set is classed as cell-based. To be noted: 2,5-50 mg/ml. How it is done:
as §3, §4

The next data set has as its system BT4Cn tumours. Briefly: survival of rats with intracranially implanted BT4Cn tumours. The data set is classed as in vivo. As for the experimental part:
Mail Norwegian brown rats, BD IX, were used as described in example 5. The TTA was administered by oro-gastric intubation.
The tumour was implanted by stereotactical transplantation. The rats were anaesthetised with 0.4 ml Equithesin/100 g body weight. A skin incision was made, blood was removed by H2O2 and the scull was trephined using a dental drill.
The burr hole was localized 3.3 mm posterior to the coronal suture and 2.5 mm lateral to the sagittal suture.
Cells were harvested and counted as described above (Section 5.3), and then diluted in DPBS to a final concentration on 20.000 cells/μl. 2 μl cell suspension was injected with a Hamilton syringe with a cone-tipped 0.7 mm needle at a depth of 2.8 mm. The skin was closed with steel staples, and the animals were returned to their cages.

In data set [3] the test system is Chinese hamster ovary cells. Description: chromosomal aberrations in cultured Chinese hamster ovary cells. In kind it is cell-based. The note with it: doses tested 12-140 mg/ml.

Turning to Tetradecylthioacetic acid [TTA], the lipid related parameters entry in data set [1] (animals given high dosages) is reported as “lowered”. Further, the tolerability result in data set [1] (oral administration, dose levels up to 500 mg/kg/day) was “generally well tolerated”. Moreover, the evidence of toxicity entry in data set [1] (oral, dose levels of 50 or 500 mg/day/kg) is given as “no evidence of toxicity”. Besides, the migratory capacity entry in the data set with D-54MG cells and in the data set on GaMg cells was “severely inhibited” throughout. The induction of mutations entry in the data set with Escherichia coli and in the data set on Salmonella typhimurium was “did not induce mutations” in each case. For the same compound, the mutagenicity entry in data set [2] is on record as “not mutagenic”. In the data set with BT4Cn tumours, the overall survival result is “substantially increased”.

Regarding `CCCCCCCCCCCCCC[Se]CC(=O)O` [TSA, tetradecylselenioacetic acid], the chromosomal aberrations entry in data set [3] is listed as “no aberrations were induced”. The induction of mutations entry in the data set with Escherichia coli and in the data set on Salmonella typhimurium was “did not induce mutations; also recorded: not to be mutagenic” each time.
